Consider 16 compounds from patent US20260028326A1, “COMPOUND BASED ON ISOINDOLINE-SUBSTITUTED GLUTARIMIDE BACKBONE AND USE THEREOF” (GLUETACS THERAPEUTICS (SHANGHAI) CO., LTD., priority 2022, published 2026).

Assay [1] has as its target human Cereblon WT GST-tagged protein (Homo sapiens (Human), UniProt Q96SW2). Nature of the assay: CRBN-binding affinity, HTRF (CEREBLON BINDING kit). The gist of the method: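 GST-tagged human WT Cereblon incubated with compound, then Thalidomide-Re tracer and anti-GST Eu antibody added. Displacement read by HTRF, reported as CRBN binding inhibition rate against blank control wells without protein.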

The target in assay [2] is IKZF3 protein (Homo sapiens (Human), UniProt Q96SW2+Q9UKT9). Briefly: Western-blot assay of substrate protein degradation in hPBMC, IKZF3. Format: cell-based. The note with it: hPBMC cells, compound 500 nM, 24 hours, Western blot. The procedure:
(§1) After treating the cells with the compounds for 24 hours, the cells were collected and lysed using RIPA protein lysate containing phosphatase inhibitors. The lysate was then placed on ice for 30-60 minutes and centrifuged. The supernatant was aspirated as the extracted total cell protein. The protein concentration of the supernatant was determined using the conventional BCA (Bicinchoninic Acid) assay. The supernatant was then mixed with 4×SDS sample loading buffer, denatured at 95° C. for 5 minutes, and then subjected to SDS-PAGE electrophoresis on a polyacrylamide gel, followed by transfer to a nitrocellulose membrane (NC membrane). The membrane was blocked with blocking buffer at room temperature for 1-2 hours, and then antibody incubation and detection were carried out according to the antibody instructions provided by Cell Signaling Technology.
(§2) Half-Maximal Degradation Concentration value (the drug concentration required for degrading proteins by 50%, abbreviated as DC50) reads method: comparing the gray values of the Western blotting bands for the drug treatment with the gray values of the Western blotting band for the DMSO control, and reading the drug concentration range corresponding to the gray value of the Western blotting bands for the drug treatment which is equal to half of the gray value of the Western blotting band for the DMSO control.
(§3) DC50 value could also be calculated as follows: using software ImageJ to quantify the gray values of the Western blotting bands for the drug treatment, fitting the relationship curve between drug concentrations and gray values, and from the fitted curve, calculating the drug concentration corresponding to half of the gray value of the Western blotting band for the DMSO control.

The target in assay [3] is GSPT1 protein (Homo sapiens (Human), UniProt P15170+Q96SW2). Nature of the assay: Western-blot assay of substrate protein degradation in hPBMC, GSPT1. The assay is classed as cell-based. The settings on record: hPBMC cells, compound 500 nM, 24 hours, Western blot. The procedure: as §1, §2, §3
Chain of GSPT1 protein (P15170 whole entry): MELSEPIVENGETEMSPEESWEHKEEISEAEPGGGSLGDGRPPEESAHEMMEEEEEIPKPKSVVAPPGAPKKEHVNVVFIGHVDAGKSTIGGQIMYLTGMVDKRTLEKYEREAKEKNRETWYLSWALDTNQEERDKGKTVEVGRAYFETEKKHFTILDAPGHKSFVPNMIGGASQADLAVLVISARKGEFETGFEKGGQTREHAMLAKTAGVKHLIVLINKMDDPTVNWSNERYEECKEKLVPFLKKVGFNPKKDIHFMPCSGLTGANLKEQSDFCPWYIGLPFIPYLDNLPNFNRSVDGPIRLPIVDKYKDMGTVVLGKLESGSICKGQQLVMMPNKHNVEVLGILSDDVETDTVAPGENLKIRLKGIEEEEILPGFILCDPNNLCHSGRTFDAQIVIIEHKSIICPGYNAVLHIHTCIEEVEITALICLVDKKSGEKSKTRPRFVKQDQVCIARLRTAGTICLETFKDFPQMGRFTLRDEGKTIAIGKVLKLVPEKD
Chain of GSPT1 protein (Q96SW2 whole entry): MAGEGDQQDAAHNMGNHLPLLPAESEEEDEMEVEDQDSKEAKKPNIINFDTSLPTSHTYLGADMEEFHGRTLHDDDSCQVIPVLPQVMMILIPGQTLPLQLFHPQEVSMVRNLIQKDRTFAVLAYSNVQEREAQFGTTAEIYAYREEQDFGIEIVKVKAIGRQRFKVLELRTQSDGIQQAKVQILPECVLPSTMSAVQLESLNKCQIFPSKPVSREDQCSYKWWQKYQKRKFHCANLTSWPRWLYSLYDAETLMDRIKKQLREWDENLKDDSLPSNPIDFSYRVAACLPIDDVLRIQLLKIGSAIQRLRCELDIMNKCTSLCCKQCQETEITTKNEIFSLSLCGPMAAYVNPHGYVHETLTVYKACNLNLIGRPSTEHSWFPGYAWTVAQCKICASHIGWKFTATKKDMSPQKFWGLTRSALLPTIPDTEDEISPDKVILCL
Chain of GSPT1 protein (Q16531 whole entry partner): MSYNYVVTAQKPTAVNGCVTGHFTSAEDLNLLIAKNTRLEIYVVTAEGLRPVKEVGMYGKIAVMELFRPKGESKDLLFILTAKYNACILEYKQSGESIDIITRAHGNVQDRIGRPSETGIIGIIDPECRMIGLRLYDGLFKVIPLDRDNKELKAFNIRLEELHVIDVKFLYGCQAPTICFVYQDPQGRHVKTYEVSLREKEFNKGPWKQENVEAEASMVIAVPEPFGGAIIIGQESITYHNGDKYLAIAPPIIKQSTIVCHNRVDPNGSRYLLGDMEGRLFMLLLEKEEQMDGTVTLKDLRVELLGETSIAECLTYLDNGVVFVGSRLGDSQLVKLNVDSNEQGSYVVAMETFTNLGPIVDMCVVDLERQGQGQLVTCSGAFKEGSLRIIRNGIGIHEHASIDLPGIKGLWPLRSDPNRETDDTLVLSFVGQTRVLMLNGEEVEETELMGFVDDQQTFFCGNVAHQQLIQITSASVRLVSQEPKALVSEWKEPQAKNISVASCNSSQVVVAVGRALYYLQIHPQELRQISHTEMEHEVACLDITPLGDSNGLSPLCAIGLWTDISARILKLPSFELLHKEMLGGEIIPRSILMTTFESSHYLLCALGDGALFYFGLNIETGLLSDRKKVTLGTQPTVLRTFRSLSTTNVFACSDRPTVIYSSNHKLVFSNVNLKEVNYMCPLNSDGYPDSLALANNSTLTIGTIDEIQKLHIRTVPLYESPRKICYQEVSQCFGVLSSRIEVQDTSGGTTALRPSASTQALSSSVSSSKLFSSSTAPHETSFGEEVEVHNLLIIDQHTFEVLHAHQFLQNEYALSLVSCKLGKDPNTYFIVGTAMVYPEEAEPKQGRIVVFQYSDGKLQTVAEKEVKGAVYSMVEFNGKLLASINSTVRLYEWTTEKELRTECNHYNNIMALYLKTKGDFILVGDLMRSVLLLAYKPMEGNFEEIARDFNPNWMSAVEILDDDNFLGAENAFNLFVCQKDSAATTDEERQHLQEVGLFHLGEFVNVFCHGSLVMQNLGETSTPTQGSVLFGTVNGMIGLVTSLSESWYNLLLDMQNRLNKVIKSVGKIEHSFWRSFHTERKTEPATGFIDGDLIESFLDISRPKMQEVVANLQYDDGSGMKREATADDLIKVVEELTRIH
The target of assay [4] is IKZF1 protein (Homo sapiens (Human), UniProt Q13422+Q96SW2). Nature of the assay: Western-blot assay of substrate protein degradation in hPBMC, IKZF1. Format: cell-based. The note with it: hPBMC cells, compound 500 nM, 24 hours, Western blot. The procedure: as §1, §2, §3
Chain of IKZF1 protein (Q13422 whole entry): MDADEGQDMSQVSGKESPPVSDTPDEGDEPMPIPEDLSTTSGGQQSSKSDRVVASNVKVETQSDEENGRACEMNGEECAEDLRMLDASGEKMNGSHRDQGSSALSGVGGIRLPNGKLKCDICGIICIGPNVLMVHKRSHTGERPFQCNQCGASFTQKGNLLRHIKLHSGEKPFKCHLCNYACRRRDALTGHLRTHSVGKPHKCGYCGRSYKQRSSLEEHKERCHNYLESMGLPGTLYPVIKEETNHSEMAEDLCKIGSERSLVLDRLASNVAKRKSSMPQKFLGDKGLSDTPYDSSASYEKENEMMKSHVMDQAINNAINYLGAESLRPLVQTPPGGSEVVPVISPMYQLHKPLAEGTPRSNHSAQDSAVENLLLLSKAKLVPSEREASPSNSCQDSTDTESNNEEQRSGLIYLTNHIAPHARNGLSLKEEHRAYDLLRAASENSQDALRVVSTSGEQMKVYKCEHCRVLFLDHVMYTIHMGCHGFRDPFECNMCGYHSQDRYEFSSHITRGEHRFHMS
Chain of IKZF1 protein (Q96SW2 whole entry): as the sequence (Q96SW2 whole entry) above
Chain of IKZF1 protein (Q16531 whole entry partner): as the sequence (Q16531 whole entry partner) above

Chain of human Cereblon WT GST-tagged protein (Q96SW2 whole entry): as the sequence (Q96SW2 whole entry) above
Chain of IKZF3 protein (Q9UKT9 whole entry): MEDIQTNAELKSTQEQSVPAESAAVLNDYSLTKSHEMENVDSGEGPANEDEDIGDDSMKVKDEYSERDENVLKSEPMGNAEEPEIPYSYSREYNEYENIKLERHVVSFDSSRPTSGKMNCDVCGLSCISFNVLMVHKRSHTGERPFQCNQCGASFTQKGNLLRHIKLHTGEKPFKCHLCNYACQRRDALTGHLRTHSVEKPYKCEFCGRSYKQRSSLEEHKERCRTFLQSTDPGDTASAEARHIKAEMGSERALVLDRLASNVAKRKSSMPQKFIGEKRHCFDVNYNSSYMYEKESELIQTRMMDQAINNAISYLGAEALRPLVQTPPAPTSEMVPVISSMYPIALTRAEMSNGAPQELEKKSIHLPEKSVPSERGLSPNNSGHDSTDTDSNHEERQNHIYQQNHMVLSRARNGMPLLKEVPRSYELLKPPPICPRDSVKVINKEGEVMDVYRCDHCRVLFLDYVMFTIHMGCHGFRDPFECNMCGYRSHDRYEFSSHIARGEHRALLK
Chain of IKZF3 protein (Q96SW2 whole entry): as the sequence (Q96SW2 whole entry) above
Chain of IKZF3 protein (Q16531 whole entry partner): as the sequence (Q16531 whole entry partner) above

Compound `CC1(C)CCC(CN2CC3CC(C2)N3Cc2ccc3c(c2F)CN(C2CCC(=O)NC2=O)C3=O)=C(c2ccc(Cl)cc2)C1` (stereo not shown) [GT-03493, 3-(5-((3-((4′-chloro-5,5-dimethyl-3,4,5,6-tetrahydro-[1,1′-biphenyl]-2-yl)methyl)-3,6-diazabicyclo[3.1.1]heptan-6-yl)methyl)-4-fluoro-1-oxoisoindolin-2-yl)piperidine-2,6-dione] displayed an IC50 in assay [1] of 750 nM. Further, the “residual substrate protein level, IKZF3” value in assay [2] was “A (A represents a residual substrate protein level of <50%)”. Besides, the “residual substrate protein level, GSPT1” value in assay [3] is listed as “A (A represents a residual substrate protein level of <50%)”. Further, the “residual substrate protein level, IKZF1” value in assay [4] was “A (A represents a residual substrate protein level of <50%)”.
As to `CC1(C)CCC(CN2CC3CCC(C2)N3Cc2ccc3c(c2)C(=O)N(C2CCC(=O)NC2=O)C3=O)=C(c2ccc(Cl)cc2)C1` (stereo not shown) [GT-04719, 5-((3-((4′-chloro-5,5-dimethyl-3,4,5,6-tetrahydro-[1,1′-biphenyl]-2-yl)methyl)-3,8-diazabicyclo[3.2.1]octan-8-yl)methyl)-2-(2,6-dioxopiperidin-3-yl)isoindoline-1,3-dione], the “residual substrate protein level, IKZF3” value in assay [2] is on record as “B (B represents a residual substrate protein level of >50%)”. In addition, the “residual substrate protein level, GSPT1” value in assay [3] is “A (A represents a residual substrate protein level of <50%)”. For the same compound, the “residual substrate protein level, IKZF1” value in assay [4] was “B (B represents a residual substrate protein level of >50%)”.
`CC1(C)CCC(CN2CC3CCC2CN3C(=O)c2ccc3c(c2)C(=O)N(C2CCC(=O)NC2=O)C3=O)=C(c2ccc(Cl)cc2)C1` (stereo not shown) [GT-05414, 5-(5-((4′-chloro-5,5-dimethyl-3,4,5,6-tetrahydro-[1,1′-biphenyl]-2-yl)methyl)-2,5-diazabicyclo[2.2.2]octane-2-carbonyl)-2-(2,6-dioxopiperidin-3-yl)isoindoline-1,3-dione]: the “residual substrate protein level, IKZF3” value in assay [2] is “A (A represents a residual substrate protein level of <50%)”. Moreover, in assay [3], the “residual substrate protein level, GSPT1” value is “B (B represents a residual substrate protein level of >50%)”. The “residual substrate protein level, IKZF1” value in assay [4] is given as “B (B represents a residual substrate protein level of >50%)”.
In the case of `CC1(C)CCC(CN2CC3CCC(C2)N3c2ccc3c(c2)CN(C2CCC(=O)NC2=O)C3=O)=C(c2ccc(Cl)cc2)C1` (stereo not shown) [GT-05430, 3-(5-(3-((4′-chloro-5,5-dimethyl-3,4,5,6-tetrahydro-[1,1′-biphenyl]-2-yl)methyl)-3,8-diazabicyclo[3.2.1]octan-8-yl)-1-oxoisoindolin-2-yl)piperidine-2,6-dione], in assay [2], the “residual substrate protein level, IKZF3” value is recorded as “B (B represents a residual substrate protein level of >50%)”. Also, the “residual substrate protein level, GSPT1” value in assay [3] is listed as “A (A represents a residual substrate protein level of <50%)”. For the same compound, the “residual substrate protein level, IKZF1” value in assay [4] is given as “B (B represents a residual substrate protein level of >50%)”.
As for `O=C1CCC(N2C(=O)c3ccc(CN4CCN(CC5=C(c6ccc(F)cc6)CCCC5)CC4)cc3C2=O)C(=O)N1` (stereo not shown) [GT-05464, 2-(2,6-dioxopiperidin-3-yl)-5-((4-((4′-fluoro-3,4,5,6-tetrahydro-[1,1′-biphenyl]-2-yl)methyl)piperazin-1-yl)methyl)isoindoline-1,3-dione], in assay [2], the “residual substrate protein level, IKZF3” value is recorded as “A (A represents a residual substrate protein level of <50%)”. Also, in assay [3], the “residual substrate protein level, GSPT1” value was “B (B represents a residual substrate protein level of >50%)”. Moreover, in assay [4], the “residual substrate protein level, IKZF1” value was “B (B represents a residual substrate protein level of >50%)”.
Turning to `CC1(C)CCC(CN2CC3CC2CN3Cc2ccc3c(c2)C(=O)N(C2CCC(=O)NC2=O)C3=O)=C(c2ccc(Cl)cc2)C1` (stereo not shown) [GT-05533, 5-((5-((4′-chloro-5,5-dimethyl-3,4,5,6-tetrahydro-[1,1′-biphenyl]-2-yl)methyl)-2,5-diazabicyclo[2.2.1]heptan-2-yl)methyl)-2-(2,6-dioxopiperidin-3-yl)isoindoline-1,3-dione], in assay [2], the “residual substrate protein level, IKZF3” value was “A (A represents a residual substrate protein level of <50%)”. For the same compound, in assay [3], the “residual substrate protein level, GSPT1” value was “A (A represents a residual substrate protein level of <50%)”. Besides, the “residual substrate protein level, IKZF1” value in assay [4] is on record as “A (A represents a residual substrate protein level of <50%)”.
On to `O=C1CCC(N2C(=O)c3ccc(C(=O)N4CCN(Cc5ccc(-c6ccc(Cl)cc6)cc5)CC4)cc3C2=O)C(=O)N1` (stereo not shown) [GT-05600, 5-(4-((4′-chloro-[1,1′-biphenyl]-4-yl)methyl)piperazine-1-carbonyl)-2-(2,6-dioxopiperidin-3-yl)isoindoline-1,3-dione], for which the “residual substrate protein level, IKZF3” value in assay [2] is listed as “B (B represents a residual substrate protein level of >50%)”. Also, the “residual substrate protein level, GSPT1” value in assay [3] is given as “A (A represents a residual substrate protein level of <50%)”. The “residual substrate protein level, IKZF1” value in assay [4] was “B (B represents a residual substrate protein level of >50%)”.
Consider `O=C1CCC(N2C(=O)c3ccc(CN4CCN(Cc5cccc(-c6ccc(Cl)cc6)c5)CC4)cc3C2=O)C(=O)N1` (stereo not shown) [GT-05630, 5-((4-((4′-chloro-[1,1′-biphenyl]-3-yl)methyl)piperazin-1-yl)methyl)-2-(2,6-dioxopiperidin-3-yl)isoindoline-1,3-dione], for which the “residual substrate protein level, IKZF3” value in assay [2] was “A (A represents a residual substrate protein level of <50%)”. For the same compound, the “residual substrate protein level, GSPT1” value in assay [3] is given as “B (B represents a residual substrate protein level of >50%)”. Moreover, in assay [4], the “residual substrate protein level, IKZF1” value is reported as “B (B represents a residual substrate protein level of >50%)”.
As for `CC1(C)CCC(CN2CC3(C2)CN(Cc2ccc4c(c2)C(=O)N(C2CCC(=O)NC2=O)C4=O)C3)=C(c2ccc(Cl)cc2)C1` (stereo not shown) [GT-05675, 5-((6-((4′-chloro-5,5-dimethyl-3,4,5,6-tetrahydro-[1,1′-biphenyl]-2-yl)methyl)-2,6-diazaspiro[3.3]heptan-2-yl)methyl)-2-(2,6-dioxopiperidin-3-yl)isoindoline-1,3-dione], the “residual substrate protein level, IKZF3” value in assay [2] was “B (B represents a residual substrate protein level of >50%)”. In assay [3], the “residual substrate protein level, GSPT1” value was “B (B represents a residual substrate protein level of >50%)”. Further, the “residual substrate protein level, IKZF1” value in assay [4] is reported as “B (B represents a residual substrate protein level of >50%)”.
In turn, `O=C1CCC(N2Cc3c(CN4CCN(CC5=C(c6ccc(F)cc6)CCCC5)CC4)cccc3C2=O)C(=O)N1` (stereo not shown) [GT-05861, 3-(4-((4-((4′-fluoro-3,4,5,6-tetrahydro-[1,1′-biphenyl]-2-yl)methyl)piperazin-1-yl)methyl)-1-oxoisoindolin-2-yl)piperidine-2,6-dione] returned an IC50 in assay [1] of 1290 nM.
Compound `O=C1CCC(N2Cc3cc(C(=O)N4CCN(CC5=C(c6ccc(F)cc6)CCCC5)CC4)ccc3C2=O)C(=O)N1` (stereo not shown) [GT-05863, 3-(5-(4-((4′-fluoro-3,4,5,6-tetrahydro-[1,1′-biphenyl]-2-yl)methyl)piperazine-1-carbonyl)-1-oxoisoindolin-2-yl)piperidine-2,6-dione] gave an IC50 in assay [1] of 1020 nM.
Still for that read-out and setting: then `O=C1CCC(N2Cc3cc(-c4ccc(CN5CCN(C(=O)c6ccccc6-c6ccc(Cl)cc6)CC5)cc4)ccc3C2=O)C(=O)N1` (stereo not shown) [GT-05874, 3-(5-(4-((4-(4′-chloro-[1,1′-biphenyl]-2-carbonyl)piperazin-1-yl)methyl)phenyl)-1-oxoisoindolin-2-yl)piperidine-2,6-dione], with 440 nM; and `O=C1CCC(N2Cc3cc(N4C5CCC4CN(C(=O)c4ccccc4-c4ccc(Cl)cc4)C5)ccc3C2=O)C(=O)N1` (stereo not shown) [GT-05875, 3-(5-(3-(4′-chloro-[1,1′-biphenyl]-2-carbonyl)-3,8-diazabicyclo[3.2.1]octan-8-yl)-1-oxoisoindolin-2-yl)piperidine-2,6-dione], with 510 nM.
Still for that read-out and setting: then `O=C1CCC(N2Cc3cc(CCN4CCN(Cc5ccccc5-c5ccc(Cl)cc5)CC4)ccc3C2=O)C(=O)N1` (stereo not shown) [GT-05876, 3-(5-(2-(4-((4′-chloro-[1,1′-biphenyl]-2-yl)methyl)piperazin-1-yl)ethyl)-1-oxoisoindolin-2-yl)piperidine-2,6-dione], with 120 nM; and `O=C1CCC(N2Cc3cc(CCCN4CCN(Cc5ccccc5-c5ccc(Cl)cc5)CC4)ccc3C2=O)C(=O)N1` (stereo not shown) [GT-05893, 3-(5-(3-(4-((4′-chloro-[1,1′-biphenyl]-2-yl)methyl)piperazin-1-yl)propyl)-1-oxoisoindolin-2-yl)piperidine-2,6-dione], with 1150 nM.
As to `CC1(C)CCC(CN2CCN(Cc3ccc4c(c3)C(=O)N(C3CCC(=O)NC3=O)C4=O)C(C(F)(F)F)C2)=C(c2ccc(Cl)cc2)C1` (stereo not shown) [GT-06103, 5-((4-((4′-chloro-5,5-dimethyl-3,4,5,6-tetrahydro-[1,1′-biphenyl]-2-yl)methyl)-2-(trifluoromethyl)piperazin-1-yl)methyl)-2-(2,6-dioxopiperidin-3-yl)isoindoline-1,3-dione], the “residual substrate protein level, IKZF3” value in assay [2] is reported as “B (B represents a residual substrate protein level of >50%)”. Also, the “residual substrate protein level, GSPT1” value in assay [3] is listed as “A (A represents a residual substrate protein level of <50%)”. The “residual substrate protein level, IKZF1” value in assay [4] is “B (B represents a residual substrate protein level of >50%)”.
